From US20260256668A1, “METHODS FOR STRENGTHENING AND REPAIRING HAIR” (Living Proof, Inc., priority 2023, published 2026)

How the values were obtained:
[1] = Hair denaturation temperature (Td) by differential scanning calorimeter (DSC); details: 3× bleached hair; for hair denaturation temperature (Td) compared to bleached, virgin and phytic acid (PA) treated hair: 2 wt % active aqueous solution, pH 4.0-4.5, 10 min, blow dry (FIGS. 4, 6, 7)
Description: European virgin brown hair was bleached three times to obtain the 3× bleached hair model. Each bleaching was done with a mixture of bleaching powder (BW2) and 40V clear developer at 1:2 ratio (5 g mixture per 1.5 g of hair) for 1 hour at room temperature, followed by 30 s water rinse, 1× wash with Sodium Lauryl Ether Sulfate (SLES), and dried in a humidity chamber for 15 min at 50° C., 20% RH. […] For each DSC measurement, a 3-5 mg of hair sample in 50 μL Deionized water is sealed and equilibrated (overnight) in a stainless-steel pressure resistant high-volume pan, then heated from 25° C. to 180° C. at a 5° C./min heating rate.

[2] = Dia-Stron single fiber tensile (mechanical) testing; details: 3× bleached hair, compared to bleached hair before treatment (FIG. 8)
Description: All single fiber tensile measurements are performed using a Dia-Stron MTT686/MTT690 (under 100% extension at gauge force of […], break threshold of 5 g, rate of 20 mm/min, maximum force of 2000 gmf and premature failure threshold of 10% strain). Before the tensile testing, all hair fibers (30 mm in length, ≥20 fibers per treatment) are fixed by 2 brass crimps at the ends and mounted on a Dia-Stron tray. Initial dimension measurements are collected using a Dia-Stron FDAS770 (double ended samples, sample size of 30 mm in length, no of slices of 5 under one rotation per slice), followed by equilibration in Deionized water for at least 2 h prior to testing.

[3] = Water contact angle (surface hydrophobicity), DSA100M Drop Shape Analyzer
Description: For this test, […], which was prepared by treating European virgin brown hair with a mixture of BW2 bleaching powder and clear 30 V developer (1:1.5 ratio, 5 g mixture per 1.5 g of hair) for 20 min under a Belvedere hooded dryer with high heat setting, followed by 30 s water rinse, 30 s 10% SLES wash, and air dry at room temperature. […] In the DSA method, a single hair fiber is mounted in a sample holder and focused by the digital camera of DSA100M. Then a droplet of filtered DI water (20-60 nL) is applied to the top of the hair fiber by a digital droplet applier, A video is then recorded until the disappearance of the water droplet. The water contact angle is obtained using the first image of the water droplet recorded. The data is collected for 3 fibers per treatment and 3 points per fiber, a total of 9 data points per treatment.

Row | Molecule | hair denaturation temperature (Td) compared to bleached, virgin and phytic acid (PA) treated hair [1] | Young's modulus [2] | also measured
1 | C=CP(=O)(O)O [VPA, Vinyl phosphonic acid] | full recovery of Td to the virgin level | biggest increases in Young's modulus | 
2 | CCCCCCCCCCCCOP(=O)(O)O [DPhate, Lauryl phosphate] |  |  | water contact angle relative to virgin hair ([3]; ethanol solution 2 wt %, 10 min, blow dry (FIG. 12)): recovered significantly and close to the virgin level
3 | NCP(=O)(O)O [AMPA, Aminomethyl phosphonic acid] | full recovery of Td to the virgin level | biggest increases in Young's modulus | 
4 | O=P(O)(O)O[C@H]1[C@H](OP(=O)(O)O)[C@@H](OP(=O)(O)O)[C@H](OP(=O)(O)O)[C@@H](OP(=O)(O)O)[C@H]1OP(=O)(O)O [PA, phytic acid, reference compound] |  |  | hair denaturation temperature (Td) compared to the base formula ([1]; washed, 0.25 g formula (PA 0.75 wt %, with or without DPhate 1 wt %) 10 min, blow dried (FIG. 17)): significantly increased Td; hair surface hydrophobicity (water contact angle) compared to base formula ([3]; formula with PA 0.75 wt %, with or without DPhate 1 wt % (FIG. 18)): significantly improved hair surface hydrophobicity
5 | Phosphatidylcholine [PC] |  |  | water contact angle relative to virgin hair ([3]; aqueous solution 1 wt % active (FIG. 14)): recovered close to the virgin level
